Source: patent US20110118276A1, “METHODS OF TREATING ATHEROSCLEROSIS” (priority 2008, published 2011)
Entries after “also recorded” stand apart in the source; their conditions may differ.

What was measured:
Type in all cases: cell-based, human
HIF-1α protein = HIF-1α protein accumulation, western blot; conditions: foam cells; for antagonism of adenosine induced HIF-1α protein accumulation: antagonist 100 nM, adenosine 100 μM, hypoxia
Procedure: Hypoxic exposures were done in a modular incubator chamber and flushed with a gas mixture containing 1% O2, 5% CO2 and balance N2 (MiniGalaxy, RSBiotech, Irvine, Scotland).
U937 cells were induced to differentiate into macrophages by treatment with phorbol myristate acetate (PMA, 40 nM) for 72 h. […] All dialyses were carried out with Pierce Slide-A-Lyzer cassettes (10,000 molecular weight cut-off).
Whole cell lysates were prepared as described previously (27). […] In experiments aimed to detect HIF, western blot analyses were performed using antibody against HIF-1α (1:250 dilution) and […] (1:1000 dilution) in 5% non-fat dry milk in PBS/0.1°)/0 Tween-20 overnight at 4° C. The protein concentration was determined using BCA protein assay kit (Pierce, Rockford, Ill.). Tubulin (1:250) was used to ensure equal protein loading. Immunoreactivity was assessed and quantified by using a VersaDoc Imaging System (Bio-Rad).

IL-8 = IL-8 secretion by foam cells, ELISA; conditions: for block of adenosine-induced IL-8 increase: antagonist 100 nM
Procedure: (§1) U937 cells were induced to differentiate into macrophages by treatment with phorbol myristate acetate (PMA, 40 nM) for 72 h. Before use oxLDL was dialyzed against 1 L of 0.15 M sodium chloride and 0.3 mM EDTA (pH 7.4) for 12 h at 4° C., then against RPMI 1640 medium (two changes, 1 L/each change) for 24 h. All dialyses were carried out with Pierce Slide-A-Lyzer cassettes (10,000 molecular weight cut-off). After dialysis, lipoproteins were sterilized by passing them through a 0.45 μm (pore-size) filter, then added (50-100 μg/mL, Intracel, Frederick, Md.) to PMA-treated U937 cells and incubated in serum-free RPMI 1640 for 48 h.
(§2) The levels of VEGF and IL-8 protein secreted by the cells in the medium were determined by VEGF and IL-8 ELISA kits (R&D Systems) according to the manufacturer's instructions. The data were presented as mean±SD from three independent experiments.

PMA-treated U937 cells = assay: Foam cell formation, Oil red O stain analysis; conditions: oxLDL 50 μg/mL, adenosine 100 μM, 24 h
Procedure: as §1
Treatment of PMA-differentiated U937 cells with test agents was performed 2 h before addition of oxLDL. After exposition to oxLDL under hypoxia for 24 h, U937 cells were fixed in phosphate buffered saline-buffered 4% paraformaldehyde solution for 15 min and then air dried. Oil red O (in 60% isopropanol) staining was done for 15 min essentially as described previously by Kalayoglu and Byrne (Infect. Immun. 1998, 66, 5067-5072). Cells were viewed under a bright-field microscope in 100× fields using a Nikon's Eclipse E800 microscope. Foam cells were defined as macrophages in which cytoplasm was filled with Oil red O-stainable lipid droplets.

VEGF = VEGF secretion by foam cells, ELISA; conditions: adenosine 100 μM, 24 h, hypoxic; for effect on adenosine-induced VEGF increase: antagonist 100 nM, U937 derived foam cells
Procedure: as §1, §2

[1] = adenosine 100 μM, U937 derived foam cells, hypoxic

| SMILES | block of adenosine-induced IL-8 increase (IL-8; [1]) | antagonism of adenosine induced HIF-1α protein accumulation (HIF-1α protein) | effect on adenosine-induced VEGF increase (VEGF) | other results |
| --- | --- | --- | --- | --- |
| CCNC(=O)[C@H]1O[C@@H](n2cnc3c(Nc4ccc(OCC(=O)Nc5ccccc5)cc4)ncnc32)[C@H](O)[C@@H]1O [1-deoxy-1-[6-{4-[(phenylcarbamoyl)-methoxy]phenylamino}-9H-purin-9-yl]-N-ethyl-β-D-ribofuranuronamide] |  |  |  | induction of HIF-1α protein by adenosine receptor agonists (HIF-1α protein; CHA 10, 100 nM, CGS 21680 500, 1000 nM, A2B agonist 10, 100 nM, CI-IB-MECA 10, 100 nM): able to induce HIF-1α protein; IL-8 secretion (IL-8; A2B receptor agonist 1 μM): 142±8 % of IL-8 secretion; EC50 (IL-8; Homo sapiens, U-937, dose-response curve, U937 derived foam cells, hypoxic, read-out: EC50 for stimulation of IL-8 secretion): 58 ± 6 nM |
| CCCn1c(=O)c2[nH]c(C3CCCC3)nc2n(CCC)c1=O [DPCPX, 1,3-dipropyl-8-cyclopentylxanthine] | not |  |  |  |
| CCCn1c(=O)c2nc(-c3cc(OCC(=O)Nc4ccc5c(c4)OCO5)nn3C)[nH]c2n(CCC)c1=O [MRE-2029F20, N-1,3-benzodioxol-5-yl-2-{[5-(2,6-dioxo-1,3-dipropyl-2,3,6,9-tetrahydro-1H-purin-8-yl)-1-methyl-1H-pyrazol-3-yl]oxy}acetamide] | blocked | partially antagonized | strongly reduced | effect on oxLDL and adenosine induced foam cells formation (Oil red O) (PMA-treated U937 cells; antagonist 100 nM): blocked the foam cells formation; also recorded: inhibition of foam cell formation; block of the effect of the A2B receptor agonist (1 μM) on IL-8 secretion (IL-8; U937 derived foam cells): completely blocked |
| CCCn1cc2c(nc(NC(=O)Nc3ccc(OC)cc3)n3nc(-c4ccco4)nc23)n1 [MRE-3008F20, 5-N-(4-methoxyphenyl-carbamoyl)amino-8-propyl-2-(2furyl)-pyrazolo-[4,3e]-1,2,4-triazolo[1,5-c]pyrimidine] | not | partially antagonized | strongly reduced | effect on oxLDL and adenosine induced foam cells formation (Oil red O) (PMA-treated U937 cells; antagonist 100 nM): blocked the foam cells formation; also recorded: inhibition of foam cell formation |
| Nc1nc2c(cnn2CCc2ccccc2)c2nc(-c3ccco3)nn12 [SCH 58261] | not | partially antagonized | inhibited to lesser extent |  |
| COc1ccccc1NC(=O)Nc1nc(-c2cccnc2)nc2ccccc12 [VUF 5574] |  |  |  | effect on oxLDL and adenosine induced foam cells formation (Oil red O) (PMA-treated U937 cells; antagonist 10 nM): blocked the foam cells formation; also recorded: inhibition of foam cell formation |
| Nc1ncnc2c1ncn2[C@@H]1O[C@H](CO)[C@@H](O)[C@H]1O [adenosine] |  |  |  | effect on oxLDL-induced foam cell formation (Oil red O) (PMA-treated U937 cells): increased; increase of VEGF levels (VEGF; supernatant of U937 derived foam cells): 165±10%; increase of IL-8 levels (IL-8; adenosine 100 μM, supernatant of U937 derived foam cells, hypoxic): 158±10% |
